Data on 10 compounds can be found in patent publication US20250059144A1, “Tellurium-containing compounds and the use of treating bacterial infections thereof” (Kaohsiung Medical University, priority 2021, published 2025).

Data set [1] deals with carbapenem-resistant Escherichia coli (n = 34). The data set can be described thus: MICs in carbapenem-resistant isolate panel. The data set is classed as cell-based. The note with it: E. coli (n = 34). An excerpt: (§1) Compound (c) was therefore used for further evaluation of anti-bacterial activities to carbapenem resistant bacteria involving Escherichia coli, Klebsiella pneumoniae, Pseudomonas aeruginosa, and Acinetobacter baumannii in the following experiments.
(§2) 34 carbapenem-resistant Klebsiella pneumoniae, 34 carbapenem-resistant Escherichia coli, 29 carbapenem-resistant Pseudomonas aeruginosa isolated from infected blood, and 28 carbapenem-resistant Acinetobacter baumannii isolated from infected blood were selected to evaluate the anti-bacterial activities of compounds (c).

Data set [2] deals with carbapenem-resistant Klebsiella pneumoniae (n = 34). Put plainly: MICs in carbapenem-resistant isolate panel. The data set is classed as cell-based. The note with it: K. pneumoniae (n = 34).
Source text: as §1, §2

The subject of data set [3] is carbapenem-resistant Acinetobacter baumannii isolated from infected blood (n = 28). The data set can be described thus: MICs in carbapenem-resistant isolate panel. The data set is classed as cell-based. Conditions: A. baumannii (n = 28).
Source text: as §1, §2

Data set [4] deals with carbapenem-resistant Pseudomonas aeruginosa isolated from infected blood (n = 29). Put plainly: MICs in carbapenem-resistant isolate panel. The format is cell-based. Conditions: P. aeruginosa (n = 29).
Source text: as §1, §2

Data set [5] relates to Klebsiella pneumoniae ATCC BAA-1705. Put plainly: MIC in cation-adjusted Muller-Hinton broth. The format is cell-based.
Source text: as §1

Data set [6] has as its system Escherichia coli CRE-415. The data set can be described thus: MIC in cation-adjusted Muller-Hinton broth. The format is cell-based.
Source text: as §1

Data set [7] deals with Acinetobacter baumannii strain AB03. The data set can be described thus: MIC in cation-adjusted Muller-Hinton broth. The format is cell-based.
Source text: as §1

Data set [8] concerns Pseudomonas aeruginosa strain PA13. The data set can be described thus: MIC in cation-adjusted Muller-Hinton broth. The format is cell-based.
Source text: as §1

Data set [9] has as its system Klebsiella pneumoniae strain CRE-723. The data set can be described thus: MIC in cation-adjusted Muller-Hinton broth. The data set is classed as cell-based.
Source text: as §1

The nature of data set [10]: Acute toxicity test (survival, LD50). The format is in vivo. The note with it: male mice; for survival rate: one week observation. As for the experimental part: In terms of acute toxicology, the dose-response relationship is represented in S-shaped curve. It is not easy to obtain the LD50 value directly through the experiment. Therefore, the animal survival rate of 20˜80% must be used as the benchmark, and the LD50 value is obtained by calculating the dose and survival rate of the area. Six male mice of each group were injected with 15, 20, and 25 mg/kg of compound (c) by intraperitoneal injection. After a week of behavior and physiological observations, the survival rate was recorded and applied for linear regression.

The nature of data set [11]: Histopathological lesion evaluation and severity score of surviving mice. The format is in vivo. As for the experimental part: In the experiment, 2 mice in the 20 and 25 mg/kg groups were randomly selected for euthanasia, the tissues involving heart, liver, spleen, lung, kidney, stomach, small intestine, large intestine, pancreatic were sliced and stained and were used for histopathological lesion evaluation and severity score by a professional pathology veterinarian (Disease Animal Special Certificate No. 0040).
Extremely light to slight monocyte infiltration in the heart was a lesion that were occasionally observed by a normal mouse might be irrelevant to experimental disposal, and a small number of monocyte infiltration cells could be observed in the portal vein area of the liver of most mice. Mild to moderate hepatocyte glycogen deposition were found in all mice, and significant swollen occurred in their liver cells, this was a common background lesions in normal mice in the case of sacrifice without sufficient fasting. It was worth noting that slight necrosis of the liver was only seen in No. 25-2. Increased mitosis in liver cell is one of the common regeneration or hyperplasia reactions for liver tissue damage. Compared with normal liver tissue, damaged liver tissue may have more mitosis cells, but it is also occasionally seen in normal mice. The mice of Nos. 20-1 and 25-2 had extremely slight to mild hepatocytes increased mitosis. It might be irrelevant to experimental disposal since the degree of increased mitosis was extremely mild to mild and was not related to the dose. Extramedullary hematopoiesis (EMH) are common lesions of mice liver tissue, it can be considered as background lesion if the degree is extremely mild. […] Besides, EMH is also common lesions occurred in spleen of mice and may exist in normal mice, the mild degree of EMH may be therefore considered as background lesions. Extremely mild to mild EMH lesions were found in spleen tissues of all mice. It could be found in the number 25-2 mouse spleen that its lymphoid follicle had multiple extremely mild apoptosis lesions, but no tissue necrosis was found. […] Chronic progressive nephropathy (CPN) involving lesions of tubule basophilia, basement membrane thickening, mononuclear inflammatory cells infiltration, glomerulosclerosis, or tubule dilatation is the most common kidney lesions in the kidney tissues of mice. The cause of CPN is unknown, it can be found in normal mice, and the incidence is increased depend on ages, male mice have a higher incidence than female mice. Therefore, it is generally not recommended to score CPN lesion separately. CPN may also occur after drug administration, it should be considered as treatment-related lesions if the severities have a significant difference in group differences. In this study, there were moderate or higher CPN lesions in each mouse kidney tissue, except for mouse of No. 25-2. However, the difference was not related to the dose and might not be related to the experimental disposal.

Data set [12] relates to Acinetobacter baumannii strain AB03. The data set can be described thus: Carbapenem-resistant Acinetobacter baumannii sepsis infection model. The format is in vivo. Conditions: 40 mg/kg/day, 3 days treatment, A. baumannii AB03 septic mice. Here is the method: For establishing the carbapenem-resistant Acinetobacter baumannii sepsis infection model, 12 mice were separated in each group and were infected with the standard Acinetobacter baumannii strain AB03 with lethal dosage by intraperitoneal injection. The compound (c) was given to test groups at the dosage of 0.33, 1.67 and 3.33 mg/kg/day for 3 days treatment, respectively. The clinical standard therapy colistin methanesulfonate (CMS) (40 mg/kg/day) was selected as compared drug. 1×PBS was given as placebo group. Mice survival rate were observed four times a day and were recorded as the curve.

The mark [13] stands for this setting: ATCCBAA1705, read-out: MIC K. pneumoniae ATCC BAA-1705.
Setting [14] is: CRE415, read-out: MIC E. coli CRE-415.
Setting [15] is: AB03, read-out: MIC A. baumannii strain AB03.
[16] abbreviates: PA13, read-out: MIC P. aeruginosa strain PA13.
[17] abbreviates: CRE723, read-out: MIC K. pneumoniae strain CRE-723.
Where [18] appears, read: 20 mg/kg, mice 20-1, 20-2, day 7.
Setting [19] is: 25 mg/kg, mice 25-1, 25-2, day 7.

Where “and” joins values, the source holds several entries; their conditions need not be identical. Equal values may be shown once. Read-outs that look alike come from different tables or passages of the source.

The MIC50 is the lowest concentration that inhibits either 50% of growth or 50% of the strains tested, depending on the study. The low end stands for higher susceptibility, the high end for lower susceptibility. By MIC90 is commonly meant an inhibitory concentration at the 90% level, which refers to growth in some studies and to a panel of isolates in others. Read a high MIC90 as lower susceptibility. Consider `Cl[TeH]1(Cl)(Cl)OCCO1` [AS101], for which the MIC range is 0.5~32 μg/mL in data set [1], <0.5~16 μg/mL in data set [2] and <0.5~8 μg/mL in [3]. The MIC50 came out at 4 µg/mL in data set [1] (Escherichia coli), 2 µg/mL in [2] (Klebsiella pneumoniae), 2 µg/mL in [3] (Acinetobacter baumannii) and 64 µg/mL in [4]. Further, the MIC90 in [1] (Escherichia coli) is 8 µg/mL; in [2] (Klebsiella pneumoniae), 16 µg/mL; in data set [3] (Acinetobacter baumannii), 4 µg/mL; in data set [4] it was more than 64 µg/mL.
By MIC is commonly meant the lowest concentration that inhibits growth of the organism. Take `Cl[Te]1(Cl)Nc2ccccc2N1` [compound (a)]: the MIC came out at 4 µg/mL in data set [5] (setting [13]); 1 µg/mL in data set [6] (setting [14]); 1 µg/mL in [7] (setting [15]); 2 µg/mL in data set [8] (setting [16]); 2 µg/mL in data set [9] (setting [17]).
Turning to `Cl[TeH]1(Cl)(Cl)[n+]2ccccc2-c2cccc[n+]21` [compound (b)], the MIC in data set [5] (setting [13]) stood at 16 µg/mL; in data set [6] (setting [14]), 4 µg/mL; in data set [7] (setting [15]), 2 µg/mL; in [8] (setting [16]), 4 µg/mL; in data set [9] (setting [17]) it was 16 µg/mL.
What is called LD50 is the dose at which mortality reaches 50%. High values mean lower toxicity, low ones greater toxicity. The compound `CN1CCN(C)[TeH]1(Cl)(Cl)Cl` [compound (c)] had a survival rate in data set [10] (15 mg/kg intraperitoneal) of 100%. The same compound displayed a survival rate in data set [10] (20 mg/kg intraperitoneal) of 83.3%. The survival rate in [10] (25 mg/kg intraperitoneal) stood at 33.3%. The compound further had an LD50 in data set [10] (intraperitoneal, linear regression of 20 and 25 mg/kg survival) of 23.3 mg/kg. Further, in [11] (setting [18]), the “Heart Mononuclear cells infiltration severity score” value was 0; the “Heart Necrosis/ degeneration severity score” value came out at 0; the “Kidney Nephropathy, chronic progressive (CPN) severity score” value is 3 and 4; the “Large intestine Erosion/ ulcer severity score” value turned out to be 0. In data set [11] (setting [18]), the “Large intestine Mononuclear cells infiltration severity score” value came to 0; the “Liver Extramedullary hematopoiesis, EMH severity score” value was 1 and 2; the “Liver Glycogen deposition severity score” value is 3 and 4; the “Liver Increased mitosis severity score” value stood at 0. Also, in data set [11] (setting [18]), the “Liver Necrosis/ degeneration severity score” value is 0, the “Lung Mononuclear cells infiltration severity score” value is on record as 0, the “Lung Necrosis/ degeneration severity score” value came out at 0 and the “Pancreas Mononuclear cells infiltration severity score” value is given as 0. In data set [11] (setting [18]), the “Pancreas Necrosis severity score” value turned out to be 0, the “Small intestine Erosion/ ulcer severity score” value was determined as 0, the “Small intestine Mononuclear cells infiltration severity score” value came to 0 and the “Spleen Apoptosis severity score” value was 0. Moreover, in data set [11] (setting [18]), the “Spleen Extramedullary hematopoiesis, EMH severity score” value came to 2; the “Spleen Necrosis severity score” value was 0; the “Stomach Erosion/ ulcer severity score” value was found to be 0; the “Stomach Mononuclear cells infiltration severity score” value is 0. Also, in data set [11] (setting [19]), the “Heart Necrosis/ degeneration severity score” value was 0, the “Large intestine Erosion/ ulcer severity score” value was 0, the “Large intestine Mononuclear cells infiltration severity score” value turned out to be 0 and the “Liver Increased mitosis severity score” value turned out to be 0. Moreover, in data set [11] (setting [19]), the “Liver Mononuclear cells infiltration severity score” value amounted to 1, the “Lung Mononuclear cells infiltration severity score” value was found to be 0, the “Lung Necrosis/ degeneration severity score” value was determined as 0 and the “Pancreas Mononuclear cells infiltration severity score” value worked out at 0. In [11] (setting [19]), the “Pancreas Necrosis severity score” value is recorded as 0; the “Small intestine Erosion/ ulcer severity score” value was 0; the “Small intestine Mononuclear cells infiltration severity score” value is reported as 0; the “Spleen Extramedullary hematopoiesis, EMH severity score” value is 2 and 1. Moreover, in [11] (setting [19]), the “Spleen Necrosis severity score” value was 0, the “Stomach Erosion/ ulcer severity score” value was 0 and the “Stomach Mononuclear cells infiltration severity score” value is listed as 0.
With `[2H]C1([2H])O[TeH](Cl)(Cl)(Cl)OC1([2H])[2H]` [compound (d)], the MIC in data set [5] (ATCCBAA1705, CAMHB, read-out: MIC K. pneumoniae ATCC BAA-1705) was 8 µg/mL; in data set [6] (CRE415, CAMHB, read-out: MIC E. coli CRE-415) it was 1 µg/mL; in data set [7] (AB03, CAMHB, read-out: MIC A. baumannii strain AB03) it was 1 µg/mL; in data set [8] (PA13, CAMHB, read-out: MIC P. aeruginosa strain PA13), 1 µg/mL; in data set [9] (CRE723, CAMHB, read-out: MIC K. pneumoniae strain CRE-723) it was 8 µg/mL.
With `Cl[TeH]1(Cl)(Cl)[n+]2ccccc2SSc2cccc[n+]21` [compound (e)], the MIC stood at 16 µg/mL in data set [5] (setting [13]); 4 µg/mL in data set [6] (setting [14]); 4 µg/mL in data set [7] (setting [15]); 16 µg/mL in data set [8] (setting [16]); 32 µg/mL in data set [9] (setting [17]).
Regarding `Cl[TeH]1(Cl)(Cl)[n+]2cccc3ccc4ccc[n+]1c4c32` [compound (f)], the MIC was 8 µg/mL in data set [5] (setting [13]); 8 µg/mL in data set [6] (setting [14]); 1 µg/mL in data set [7] (setting [15]); 2 µg/mL in [8] (setting [16]); 4 µg/mL in [9] (setting [17]).
`Cc1cc[n+]2c(c1)-c1cc(C)cc[n+]1[TeH]2(Cl)(Cl)Cl` [compound (g)]: the MIC was found to be 16 µg/mL in data set [5] (setting [13]); 16 µg/mL in data set [6] (setting [14]); 4 µg/mL in data set [7] (setting [15]); 4 µg/mL in [8] (setting [16]); 16 µg/mL in [9] (setting [17]).
`Cc1ccc2[n+](c1)[TeH](Cl)(Cl)(Cl)[n+]1cc(C)ccc1-2` [compound (h)]: the MIC amounted to 8 µg/mL in data set [5] (setting [13]); 4 µg/mL in data set [6] (setting [14]); 4 µg/mL in data set [7] (setting [15]); 8 µg/mL in data set [8] (setting [16]); 16 µg/mL in data set [9] (setting [17]).
In data set [12], colistin methanesulfonate [CMS] displayed a survival rate of 16.7%.
